Results taken from US11180462B2, “Microbiocidal oxadiazole derivatives” (SYNGENTA PARTICIPATIONS AG, priority 2015, dated 2021).

Assays:
[1] = test system: Glomerella lagenarium (Colletotrichum lagenarium); assay: Fungicidal activity against Glomerella lagenarium (Colletotrichum lagenarium) liquid culture / cucumber / preventative (anthracnose); type: cell-based; settings: Colletotrichum orbiculare; 20 ppm in the applied formulation; liquid culture (PDB), growth inhibition measured photometrically after 3 to 4 days; compared to untreated control; read-out: disease control
Outline: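 Percent activity against the untreated check was derived from photometric growth measurements made 2 to 7 days after conidia in potato dextrose broth were combined with compound at 20 ppm. Cultures were kept dark at 24 °C and 96% humidity.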

[2] = test system: Puccinia recondita f. Sp. Tritici; assay: Fungicidal activity against Puccinia recondita f. sp. tritici / wheat / leaf disc preventative (brown rust); type: in vivo; settings: foliar, 200 ppm in the applied formulation, wheat leaf segments, preventative, compared to untreated control leaf disks, read-out: disease control
Outline: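 200 ppm spray on wheat cv. Kanzler leaf segments; spore inoculation +1 day; 19° C., 75% rh, 12 h/12 h light cycle; single rating of % control vs untreated at 7 to 9 days.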

[3] = test system: Puccinia recondita f. Sp. Tritici; assay: Fungicidal activity against Puccinia recondita f. sp. tritici / wheat / leaf disc curative (brown rust); type: in vivo; settings: foliar, 24 h, 200 ppm in the applied formulation, wheat leaf segments, curative (applied 1 day after inoculation), compared to untreated control leaf disks, read-out: disease control
Outline: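 Wheat cv. Kanzler leaf segments on agar, inoculated with rust spore suspension, kept dark at 19° C and 75% RH; formulated compound sprayed 1 day post-inoculation. Incubated 19° C, 75% RH, 12 h light/12 h dark; percent disease control vs untreated scored 6 to 8 days after application.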

[4] = test system: Phakopsora Pachyrhizi; assay: Fungicidal activity against Phakopsora pachyrhizi / soybean / leaf disc preventative (Asian soybean rust); type: in vivo; settings: foliar, 200 ppm in the applied formulation, soybean leaf disks, compared to untreated control leaf disks, read-out: disease control
Outline: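 Scored 12 to 14 days post-application as percent control relative to untreated check discs, rust spores were sprayed under the disc one day after compound treatment. Incubation: 20°C, 75% rh, first 24–36 h in darkness, then 12 h daily light; discs kept on water agar.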

C#CCN(Cc1ccc(-c2noc(C(F)(F)F)n2)cc1)C(=O)C1(C(F)(F)F)CC1 [Compound 1.151, N-prop-2-ynyl-1-(trifluoromethyl)-N-[[4-[5-(trifIuoromethyl)-1,2,4-oxadiazol-3-yl]phenyl]methyl]-cyclopropane-carboxamide]
≥ 80%: inhibition of growth at 20 ppm [1] | pest or weed control at 200 ppm [2] | pest or weed control at 200 ppm [3] | pest or weed control at 200 ppm [4]

CCCN(Cc1ccc(-c2noc(C(F)(F)F)n2)cc1)C(=O)COC [Compound 1.575, 2-methoxy-N-propyl-N-[[4-[5-(trifluoromethyl)-1,2,4-oxadiazol-3-yl]phenyl]methyl]-acetamide]
≥ 80%: inhibition of growth at 20 ppm [1] | pest or weed control at 200 ppm [2] | pest or weed control at 200 ppm [3] | pest or weed control at 200 ppm [4]

CCC(=O)N(Cc1ccc(-c2noc(C(F)(F)F)n2)cc1)C(C)CC (centres unmarked) [Compound 1.389, N-sec-butyl-N-[[4-[5-(trifiuoromethyl)-1,2,4-oxadiazol-3-yl]phenyl]methyl]-propanamide]
≥ 80%: inhibition of growth at 20 ppm [1] | pest or weed control at 200 ppm [2] | pest or weed control at 200 ppm [3] | pest or weed control at 200 ppm [4]

CCC(C)N(Cc1ccc(-c2noc(C(F)(F)F)n2)cc1)C(C)=O (centres unmarked) [Compound 1.407, N-sec-butyl-N-[[4-[5-(trifluoromethyl)-1,2,4-oxadiazol-3-yl]phenyl]methyl]-acetamide]
≥ 80%: inhibition of growth at 20 ppm [1] | pest or weed control at 200 ppm [2] | pest or weed control at 200 ppm [3] | pest or weed control at 200 ppm [4]

CCC(C)C(=O)N(Cc1ccc(-c2noc(C(F)(F)F)n2)cc1)C1CC1 (centres unmarked) [Compound 1.126, N-cyclopropyl-2-methyl-N-[[4-[5-(trifluoromethyl)-1,2,4-oxadiazol-3-yl]phenyl]methyl]-butanamide]
≥ 80%: inhibition of growth at 20 ppm [1] | pest or weed control at 200 ppm [2] | pest or weed control at 200 ppm [3] | pest or weed control at 200 ppm [4]

O=C(CC(F)(F)F)N(Cc1ccc(-c2noc(C(F)(F)F)n2)cc1)C1CC1 [Compound 1.111, N-cyclopropyl-3,3,3-trifluoro-N-[[4-[5-(trifluoromethyl)-1,2,4-oxadiazol-3-yl]phenyl]methyl]-propanamide]
≥ 80%: inhibition of growth at 20 ppm [1] | pest or weed control at 200 ppm [2] | pest or weed control at 200 ppm [3] | pest or weed control at 200 ppm [4]

O=C(CC1CC1(F)F)N(Cc1ccc(-c2noc(C(F)(F)F)n2)cc1)C1CC1 (centres unmarked) [Compound 1.138, N-cyclopropyl-2-(2,2-difluorocyclopropyl)-N-[[4-[5-(trifluoromethyl)-1,2,4-oxadiazol-3-yl]phenyl]methyl]-acetamide]
≥ 80%: inhibition of growth at 20 ppm [1] | pest or weed control at 200 ppm [2] | pest or weed control at 200 ppm [3] | pest or weed control at 200 ppm [4]

COCCC(=O)N(Cc1ccc(-c2noc(C(F)(F)F)n2)cc1)OC [Compound 1.31, N,3-dimethoxy-N-[[4-[5-(trifluoromethyl)-1,2,4-oxadiazol-3-yl]phenyl]methyl]-propanamide]
≥ 80%: inhibition of growth at 20 ppm [1] | pest or weed control at 200 ppm [2] | pest or weed control at 200 ppm [3] | pest or weed control at 200 ppm [4]

COCCCC(=O)N(C)Cc1ccc(-c2noc(C(F)(F)F)n2)cc1 [Compound 1.526, 4-methoxy-N-methyl-N-[[4-[5-(trifluoromethyl)-1,2,4-oxadiazol-3-yl]phenyl]methyl]-butanamide]
≥ 80%: inhibition of growth at 20 ppm [1] | pest or weed control at 200 ppm [2] | pest or weed control at 200 ppm [3] | pest or weed control at 200 ppm [4]

CC(C)C(=O)N(Cc1ccc(-c2noc(C(F)(F)F)n2)cc1)CC1CC1 [Compound 1.206, N-(cyclopropylmethyl)-2-methyl-N-[[4-[5-(trifluoromethyl)-1,2,4-oxadiazol-3-yl]phenyl]methyl]-propanamide]
≥ 80%: inhibition of growth at 20 ppm [1] | pest or weed control at 200 ppm [2] | pest or weed control at 200 ppm [3] | pest or weed control at 200 ppm [4]

CCC(=O)N(Cc1ccc(-c2noc(C(F)(F)F)n2)cc1)C(C)C [Compound 1.589, N-isopropyl-N-[[4-[5-(trifluoromethyl)-1,2,4-oxadiazol-3-yl]phenyl]methyl]-propanamide]
≥ 80%: inhibition of growth at 20 ppm [1] | pest or weed control at 200 ppm [2] | pest or weed control at 200 ppm [3] | pest or weed control at 200 ppm [4]

CCC(=O)N(CCOC)Cc1ccc(-c2noc(C(F)(F)F)n2)cc1 [Compound 1.345, N-(2-methoxyethyl)-N-[[4-[5-(trifluoromethyl)-1,2,4-oxadiazol-3-yl]phenyl]methyl]-propanamide]
≥ 80%: inhibition of growth at 20 ppm [1] | pest or weed control at 200 ppm [2] | pest or weed control at 200 ppm [3] | pest or weed control at 200 ppm [4]

CCCN(Cc1ccc(-c2noc(C(F)(F)F)n2)cc1)C(=O)CC [Compound 1.573, N-propyl-N-[[4-[5-(trifluoromethyl)-1,2,4-oxadiazol-3-yl]phenyl]methyl]-propanamide]
≥ 80%: inhibition of growth at 20 ppm [1] | pest or weed control at 200 ppm [2] | pest or weed control at 200 ppm [3] | pest or weed control at 200 ppm [4]

CON(Cc1ccc(-c2noc(C(F)(F)F)n2)cc1)C(=O)NCC1(C#N)CC1 [Compound 3.40, 3-[(1-cyanocyclopropyl)-methyl]-1-methoxy-1-[[4-[5-(trifluoromethyl)-1,2,4-oxadiazol-3-yl]phenyl]methyl]urea]
≥ 80%: inhibition of growth at 20 ppm [1] | pest or weed control at 200 ppm [2] | pest or weed control at 200 ppm [3] | pest or weed control at 200 ppm [4]

COCCN(Cc1ccc(-c2noc(C(F)(F)F)n2)cc1)C(=O)C1CC1(F)F (centres unmarked) [Compound 1.327, 2,2-difluoro-N-(2-methoxyethyl)-N-[[4-[5-(trifluoromethyl)-1,2,4-oxadiazol-3-yl]phenyl]methyl]-cyclopropane-carboxamide]
≥ 80%: inhibition of growth at 20 ppm [1] | pest or weed control at 200 ppm [2] | pest or weed control at 200 ppm [3] | pest or weed control at 200 ppm [4]

C=CCN(Cc1ccc(-c2noc(C(F)(F)F)n2)cc1)C(=O)C1OCCO1 [Compound 1.493, N-allyl-N-[[4-[5-(trifluoromethyl)-1,2,4-oxadiazol-3-yl]phenyl]methyl]-1,3-dioxolane-2-carboxamide]
≥ 80%: inhibition of growth at 20 ppm [1] | pest or weed control at 200 ppm [2] | pest or weed control at 200 ppm [3] | pest or weed control at 200 ppm [4]

O=C(OCCN(Cc1ccc(-c2noc(C(F)(F)F)n2)cc1)C(=O)C1CCCO1)C1CCCO1 (centres unmarked) [Compound 1.727, 2-[tetrahydrofuran-2-carbonyl-[[4-[5-(trifluoromethyl)-1,2,4-oxadiazol-3-yl]phenyl]methyl]-amino]ethyl tetrahydrofuran-2-carboxylate]
≥ 80%: inhibition of growth at 20 ppm [1] | pest or weed control at 200 ppm [2] | pest or weed control at 200 ppm [3] | pest or weed control at 200 ppm [4]

CC(C)N(Cc1ccc(-c2noc(C(F)(F)F)n2)cc1)C(=O)C1CCCO1 (centres unmarked) [Compound 1.682, N-isopropyl-N-[[4-[5-(trifluoromethyl)-1,2,4-oxadiazol-3-yl]phenyl]methyl]-tetrahydrofuran-2-carboxamide]
≥ 80%: inhibition of growth at 20 ppm [1] | pest or weed control at 200 ppm [2] | pest or weed control at 200 ppm [3] | pest or weed control at 200 ppm [4]

C#CCN(Cc1ccc(-c2noc(C(F)(F)F)n2)cc1)C(=O)C1(C)CC1 [Compound 1.183, 1-methyl-N-prop-2-ynyl-N-[[4-[5-(trifluoromethyl)-1,2,4-oxadiazol-3-yl]phenyl]methyl]-cyclopropane-carboxamide]
≥ 80%: inhibition of growth at 20 ppm [1] | pest or weed control at 200 ppm [2] | pest or weed control at 200 ppm [3] | pest or weed control at 200 ppm [4]

C=CCN(Cc1ccc(-c2noc(C(F)(F)F)n2)cc1)C(=O)CCC [Compound 1.485, N-allyl-N-[[4-[5-(trifluoromethyl)-1,2,4-oxadiazol-3-yl]phenyl]methyl]-butanamide]
≥ 80%: inhibition of growth at 20 ppm [1] | pest or weed control at 200 ppm [2] | pest or weed control at 200 ppm [3] | pest or weed control at 200 ppm [4]

CCC(=O)N(Cc1ccc(-c2noc(C(F)(F)F)n2)cc1)C1CC1 [Compound 1.119, N-cyclopropyl-N-[[4-[5-(trifluoromethyl)-1,2,4-oxadiazol-3-yl]phenyl]methyl]-propanamide]
≥ 80%: inhibition of growth at 20 ppm [1] | pest or weed control at 200 ppm [2] | pest or weed control at 200 ppm [3] | pest or weed control at 200 ppm [4]

O=C(C1CC1(Cl)Cl)N(Cc1ccc(-c2noc(C(F)(F)F)n2)cc1)C1CC1 (centres unmarked) [Compound 1.125, 2,2-dichloro-N-cyclopropyl-N-[[4-[5-(trifluoromethyl)-1,2,4-oxadiazol-3-yl]phenyl]methyl]-cyclopropane-carboxamide]
≥ 80%: inhibition of growth at 20 ppm [1] | pest or weed control at 200 ppm [2] | pest or weed control at 200 ppm [3] | pest or weed control at 200 ppm [4]

CCCN(Cc1ccc(-c2noc(C(F)(F)F)n2)cc1)C(=O)C1(C)COC1 [Compound 1.660, 3-methyl-N-propyl-N-[[4-[5-(trifluoromethyl)-1,2,4-oxadiazol-3-yl]phenyl]methyl]-oxetane-3-carboxamide]
≥ 80%: inhibition of growth at 20 ppm [1] | pest or weed control at 200 ppm [2] | pest or weed control at 200 ppm [3] | pest or weed control at 200 ppm [4]
